Patent US4576943A, “Pyrazolo[1,5-a]pyrimidines” (American Cyanamid Company, priority 1984, dated 1986)

Assays:
[1] = tested on: brain-specific receptors (tritiated benzodiazepine binding, P2-synaptosomal fraction of rat whole cortex); test: Inhibition of the binding of 3H-benzodiazepine to brain-specific receptors of rats; parameters: species or system Male albino rats (Wistar strain); conditions: 3H-diazepam (1.5 nM) or 3H-flunitrazepam (1.0 nM), pH 7.4, 30 minutes in ice; test concentration not given
Hypoxic Survival Test = type: in vivo, Royal Hart mice; conditions: 10% oxygen, 5 minutes
Protocol: Groups of 20 Royal Hart mice (6 weeks of age) are injected intraperitoneally with 10, 50 or 100 mg/kg of test compound 30 minutes prior to placing them in a hypoxic mixture (10% oxygen in 90% […]) and measuring survival after 5 minutes.
A separate group of 20 mice is injected intraperitoneally with saline solution (0.01 cc/g of body weight) and processed as described above.
Still another group of 20 mice is injected intraperitoneally with 0.125 mg/kg of physostigmine and processed as described above.

[2] = Hypotensive activity in spontaneously hypertensive rats; type: in vivo, spontaneously hypertensive rats of the Okamoto strain; conditions: 100 mg/kg by gavage, two doses 24 hours apart, measured at 28 hours after the initial dose; one or two rats
Protocol: The novel compounds of the present invention are active hypotensive agents and were tested for hypotensive activity by the method of P. S. Chan and D. Poorvin, Clinical and Experimental Hypertension, 1 (6), 817-830 (1979). […] One to 3 rats are used per test compound. A rat is dosed by gavage with a test compound suspended in 2% pre-boiled starch at a concentration of 50 mg/ml, at a dose of 100 mg/kg of body weight or less, with 0.9% sodium chloride loading at a dose of 25 ml/kg of body weight. A second identical dose of the test compound, without sodium chloride loading is given 24 hours later. At 28 hours after the initial dose the mean arterial blood pressure is measured by the method of Chan and Poorvin (see above). The procedure is repeated in a second and third rat when necessary. The results of this test on representative compounds of the present invention which were obtained using one or two rats, at a dose of 100 mg/kg of body weight appear below in Table I.

[3] = Non-conditioned passive avoidance test in rats (antianxiety); type: in vivo, Wistar strain rats; parameters: key: Active: the number of shocks received by the test group is significantly higher than the control group by the Mann-Witney U test; conditions: 25 mg/kg, oral or intraperitoneal
Protocol: The antianxiety effects of the novel compounds of the present invention have been assessd in a non-conditioned passive avoidance procedure described by J. R. Vogel, B. Beer and D. E. Clody, "A Simple and Reliable Conflict Procedure for Testing Antianxiety Agents", Psychopharmacologia, 21, 1-7 (1971). A conflict situation was induced in rats by a modification of this method.
Groups of 6 naive, Wistar strain rats, weighing 200-240 g each, were deprived of water for 48 hours and food for 24 hours. The test compounds were administered in single or graded, oral or intraperitoneal doses, suspended in a 2% starch vehicle containing 0.5% v/v polyethylene glycol and one drop of Polysorbate 80. Control animals received the vehicle alone. At 30 or 60 minutes each rat was placed in an individual plexiglass chamber. Water was available ad libitum from a tap located in the rear of the chamber. A 0.7 milliampere DC shocking current was established between the stainless steel grid floor and the tap. After 20 licks of non-shocked drinking, a shock was delivered for 2 seconds and then further shocks were delivered on a ratio of one shock for 2 seconds for every 20 licks. This was continued for a total of 3 minutes. The number of shocks taken by each rat during the 3 minute interval was recorded and compared to a control group.

[4] = Passive Avoidance Anoxic Induced Amnesia Test; type: in vivo, Swiss-Webster, middle-aged mice; conditions: 100 mg/kg i.p., 30 minutes prior to training and testing; over saline control
Text: Another in vivo test associated with decreased neural function in mammals is the Passive Avoidance Anoxic Induced Amnesia Test. This test is used to determine the attenuation of anoxic induced amnesia in mice treated with drug, as compared to saline treated control animals with no drug.
A shock-motivated, single trial, step-through passive avoidance procedure is used. Groups of 25 Swiss-Webster, middle-aged mice (9 months of age) are placed singly in the front chamber of a 2-chamber box and are allowed to voluntarily cross into the rear chamber. As soon as the mouse enters the rear chamber, a guillotine door automatically traps the animal and a mild electric shock (0.4 mA for 4 seconds) is delivered to its feet. Following the foot shock, the mice are initially placed in an anoxic environment (0% oxygen) for 12 seconds, which quickly induces unconsciousness. They are then placed in a hypoxic environment (15% oxygen) for four minutes which prolongs the oxygen deprived state, maintaining unconsciousness. All testing is performed 24 hours later, and in all cases the mice appear fully recovered from the previous anoxic/hypoxic treatment. All test compounds are administered intraperitoneally at a dose of 10-100 mg/kg, 30 minutes prior to training and testing. […]
The latency to enter the rear chamber is recorded for both training and testing. […]

For `N#Cc1c(N2CCCCC2)nn2c(-c3cccnc3)ccnc12` [2-(1-Piperidinyl)-7-(3-pyridinyl)pyrazolo[1,5-a]pyrimidine-3-carbonitrile], the “% Inhibition of the binding of 3H-benzodiazepine” value [1] was 14%, the “% Survivors” value (Hypoxic Survival Test; 100 mg/kg i.p.) was 45% and the “Mean Arterial Blood Pressure” value [2] was 141 mm of mercury.
In the case of `N#Cc1c(N2CCOCC2)nn2c(-c3cccc(C(F)(F)F)c3)ccnc12` [2-(4-Morpholinyl)-7-[3-(trifluoromethyl)phenyl]pyrazolo[1,5-a]pyrimidine-3-carbonitrile], the “Result (non-conditioned passive avoidance)” value [3] is reported as “Active” and the “Mean Arterial Blood Pressure” value [2] is reported as 142 mm of mercury.
With `N#Cc1c(N2CCN(CCO)CC2)nn2c(-c3cccc(C(F)(F)F)c3)ccnc12` [2-[4-(2-Hydroxyethyl)-1-piperazinyl]-7-[3-(trifluoromethyl)phenyl]pyrazolo[1,5-a]pyrimidine-3-carbonitrile] the “% Inhibition of the binding of 3H-benzodiazepine” value [1] was 41%, the “% Survivors” value (Hypoxic Survival Test; 10 mg/kg i.p.) was 45% and the “Mean Arterial Blood Pressure” value [2] was 111 mm of mercury.
For `N#Cc1c(N2CCN(Cc3ccccc3)CC2)nn2c(-c3cccc(C(F)(F)F)c3)ccnc12` [2-[4-(Phenylmethyl)-1-piperazinyl]-7-[3-(trifluoromethyl)phenyl]pyrazolo[1,5-a]pyrimidine-3-carbonitrile], the “% Survivors” value (Hypoxic Survival Test; 50 mg/kg i.p.) was 52% and the “% Improvement” value [4] was 44%.
In the case of `N#Cc1c(N2CCN(Cc3cccc(Cl)c3)CC2)nn2c(-c3ccccc3)ccnc12` [2-[4-[(3-Chlorophenyl)methyl]-1-piperazinyl]-7-phenylpyrazolo[1,5-a]pyrimidine-3-carbonitrile], the “Result (non-conditioned passive avoidance)” value [3] is reported as “Active”.
In the case of `Cc1cc(-c2ccccc2)n2nc(N3CCN(Cc4ccccc4)CC3)c(C#N)c2n1` [5-Methyl-7-phenyl-2-[4-(phenylmethyl)-1-piperazinyl]-pyrazolo[1,5-a]pyrimidine-3-carbonitrile], the “Result (non-conditioned passive avoidance)” value [3] is reported as “Active” and the “Mean Arterial Blood Pressure” value [2] is reported as 131 mm of mercury.
